Molecules are shown by their SMILES.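 Tested at 5 concentrations; 48 h exposure; 96-well plates; endpoints linearly interpolated, else capped at highest concentration. GI50 = concentration required for 50% inhibition of growth.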 Active and inactive are the calls of the source. Cut-off read from the data, not from the text of the source: active = GI50 up to about 1.1 µM and inactive = higher.

As a reminder, the GI50 is the concentration at which growth is held to half of that of the control.

Test systems include MDA-N; SF-295; OVCAR-8; HCT-15; NCI/ADR-RES; MOLT-4; SF-539; EKVX; SW-620; A498; RXF 393; CCRF-CEM; OVCAR-4; MCF7; HL-60; NCI-H460; NCI-H226; MDA-MB-231; HOP-62; LOX IMVI.
What all share (experiment): DTP human tumour cell line panel, 48 h

Consider `COc1ccc(Nc2nnc(CCCCCCCCc3nnc(Nc4ccc(OC)cc4)o3)o2)cc1`, for which the GI50 in the assay with MDA-N is > 100 µM (inactive); in the assay on SF-295, > 100 µM (inactive); in the assay with OVCAR-8, > 100 µM (inactive); with HCT-15 it was more than 100 µM; in the assay on NCI/ADR-RES it was > 100 µM (inactive); with MOLT-4, > 100 µM (inactive). Further, the GI50 in the assay with SF-539, in the assay with EKVX, in the assay on SW-620, in the assay on A498, in the assay on RXF 393 and in the assay with CCRF-CEM was > 100 µM (inactive) each time. Besides, the GI50 in the assay with OVCAR-4, in the assay on MCF7, with HL-60, with NCI-H460, in the assay with NCI-H226 and in the assay with MDA-MB-231 was > 100 µM (inactive) throughout. The GI50 with HOP-62 and with LOX IMVI was > 100 µM (inactive) in each case.
For `CC(=O)OCC1OC(NC(=S)Nn2c(-c3ccccc3)nc3ccccc3c2=O)C(OC(C)=O)C(OC(C)=O)C1OC(C)=O` (stereo not drawn), the GI50 was > 100 µM (inactive) in the assay with MDA-N; > 100 µM (inactive) with SF-295; > 100 µM (inactive) in the assay on OVCAR-8; more than 100 µM in the assay on HCT-15; > 100 µM (inactive) in the assay with NCI/ADR-RES; 46.9 µM (inactive) in the assay with MOLT-4. For the same compound, the GI50 in the assay on SF-539 is 37.8 µM (inactive); in the assay on EKVX, > 100 µM (inactive); in the assay on SW-620, > 100 µM (inactive); in the assay with A498 it was > 100 µM (inactive); with RXF 393, > 100 µM (inactive); in the assay with CCRF-CEM, 38.5 µM (inactive). In addition, the GI50 with MCF7 was 85.9 µM (inactive); in the assay with HL-60, 70.8 µM (inactive); in the assay with NCI-H460 it was > 100 µM (inactive); in the assay on NCI-H226 it was 14.7 µM (inactive); in the assay with MDA-MB-231, 81.5 µM (inactive); with HOP-62, 97.7 µM (inactive). Also, the GI50 in the assay with LOX IMVI was > 100 µM (inactive).
`CC(N)/C(N)=N/O` (stereo not drawn): the GI50 in the assay with MDA-N was > 100 µM (inactive); with SF-295 it was > 100 µM (inactive); in the assay with OVCAR-8, > 100 µM (inactive); in the assay on HCT-15, more than 100 µM; with NCI/ADR-RES, > 100 µM (inactive); with SF-539, > 100 µM (inactive). Moreover, the GI50 in the assay with EKVX, in the assay on SW-620, in the assay on A498, with RXF 393, with CCRF-CEM and in the assay on OVCAR-4 was > 100 µM (inactive) throughout. The GI50 with MCF7, with HL-60, with NCI-H460, in the assay with NCI-H226, in the assay with MDA-MB-231 and in the assay on HOP-62 was > 100 µM (inactive) throughout. In addition, the GI50 with LOX IMVI was > 100 µM (inactive).
`C=CCN1C[C@H](C)N([C@@H](c2ccc(C(=O)N3CCCCC3)cc2)c2cccc(OC)c2)C[C@H]1C`: the GI50 in the assay on MDA-N was 34.5 µM (inactive); in the assay on SF-295, 45.2 µM (inactive); in the assay on OVCAR-8, 43.7 µM (inactive); with HCT-15, 29.6 µM; in the assay with NCI/ADR-RES it was 32.4 µM (inactive); in the assay with MOLT-4, 64.1 µM (inactive). Further, the GI50 with SF-539 was 27 µM (inactive); in the assay on EKVX it was 44.4 µM (inactive); with A498, 29.4 µM (inactive); with RXF 393, 48 µM (inactive); in the assay on CCRF-CEM, 21.5 µM (inactive); in the assay with OVCAR-4 it was 56.4 µM (inactive). In addition, the GI50 with MCF7 is 30.1 µM (inactive); in the assay on HL-60 it was 1.35 µM (inactive); in the assay with NCI-H460, 31 µM (inactive); with NCI-H226 it was 45.4 µM (inactive); with MDA-MB-231, 30.1 µM (inactive); in the assay with HOP-62 it was > 100 µM (inactive). For the same compound, the GI50 in the assay with LOX IMVI was 14.4 µM (inactive).
Turning to `O=C1C=C(c2c(-c3ccccc3)[nH]c3ccccc23)C(=O)N1c1ccccc1`, the GI50 was 3.89 µM (inactive) in the assay on MDA-N; 10.6 µM (inactive) with SF-295; 4.46 µM (inactive) with OVCAR-8; 5.38 µM in the assay on HCT-15; 8.45 µM (inactive) in the assay with NCI/ADR-RES; 25.2 µM (inactive) in the assay on MOLT-4. The GI50 in the assay with SF-539 is 8.24 µM (inactive); with EKVX, 12.4 µM (inactive); in the assay on SW-620, 5.12 µM (inactive); in the assay on A498, 10.6 µM (inactive); in the assay on RXF 393, 3.8 µM (inactive); with CCRF-CEM, 4.02 µM (inactive). Moreover, the GI50 in the assay on MCF7 is 6.19 µM (inactive); in the assay on HL-60 it was 3.96 µM (inactive); in the assay with NCI-H460 it was 14.6 µM (inactive); in the assay with NCI-H226, 22.6 µM (inactive); in the assay with MDA-MB-231, 11.3 µM (inactive); in the assay with HOP-62, 0.135 µM (active). The GI50 with LOX IMVI was 3.77 µM (inactive).
For `COc1cc(S(=O)(=O)N/N=C/c2cc(Br)c(O)c(OC)c2)c(OC)cc1NC(C)=O`, the GI50 with MDA-N is 83.6 µM (inactive); with SF-295, > 100 µM (inactive); with OVCAR-8, > 100 µM (inactive); in the assay with HCT-15, 52.6 µM; with NCI/ADR-RES, > 100 µM (inactive); with MOLT-4, 42.9 µM (inactive). The GI50 in the assay with SF-539 is 20.2 µM (inactive); in the assay with EKVX it was 55.5 µM (inactive); in the assay on SW-620, 35.1 µM (inactive); in the assay with A498, > 100 µM (inactive); with RXF 393, 42.6 µM (inactive); in the assay on CCRF-CEM it was 21.7 µM (inactive). The GI50 in the assay with OVCAR-4 was 69.3 µM (inactive); in the assay with MCF7, 57.4 µM (inactive); in the assay with HL-60, 25 µM (inactive); with NCI-H226, > 100 µM (inactive); in the assay on MDA-MB-231, 52.6 µM (inactive); in the assay with HOP-62, > 100 µM (inactive). In addition, in the assay on LOX IMVI, the GI50 was 38.6 µM (inactive).
Regarding `O=[N+]([O-])C(=C1NCCN1)C(Cl)=C(Cl)Cl`, the GI50 with MDA-N is > 100 µM (inactive); in the assay on SF-295, > 100 µM (inactive); with OVCAR-8, > 100 µM (inactive); with HCT-15, more than 100 µM; in the assay on NCI/ADR-RES, > 100 µM (inactive); in the assay on MOLT-4 it was 49.5 µM (inactive). In addition, the GI50 in the assay with SF-539 was > 100 µM (inactive); in the assay with EKVX it was > 100 µM (inactive); with A498 it was > 100 µM (inactive); with RXF 393 it was > 100 µM (inactive); with CCRF-CEM, 52.6 µM (inactive); with OVCAR-4, > 100 µM (inactive). The GI50 in the assay on MCF7 is > 100 µM (inactive); with HL-60, 62.2 µM (inactive); in the assay on NCI-H460 it was > 100 µM (inactive); in the assay on NCI-H226 it was > 100 µM (inactive); in the assay on MDA-MB-231, > 100 µM (inactive); in the assay with HOP-62 it was > 100 µM (inactive). Moreover, the GI50 in the assay on LOX IMVI was > 100 µM (inactive).
As for `Cc1cccc2sc(NC(=O)c3cc([N+](=O)[O-])ccc3Cl)nc12`, the GI50 is 1.56 µM (inactive) in the assay on MDA-N; 4.82 µM (inactive) with SF-295; 2.36 µM (inactive) in the assay on OVCAR-8; 1.91 µM in the assay with HCT-15; 2.76 µM (inactive) in the assay with NCI/ADR-RES; 2.36 µM (inactive) in the assay with SF-539. Further, the GI50 is 11.4 µM (inactive) in the assay with EKVX; 2.42 µM (inactive) in the assay with SW-620; 17.3 µM (inactive) in the assay with A498; 2.01 µM (inactive) with RXF 393; 0.0817 µM (active) in the assay with CCRF-CEM; 8.51 µM (inactive) in the assay on OVCAR-4. Moreover, the GI50 was 1.68 µM (inactive) with MCF7; 72.9 µM (inactive) in the assay on HL-60; 3.96 µM (inactive) in the assay with NCI-H460; 5.71 µM (inactive) in the assay on NCI-H226; 4.73 µM (inactive) in the assay on MDA-MB-231; 11.8 µM (inactive) with HOP-62. Moreover, the GI50 in the assay on LOX IMVI was 2.01 µM (inactive).

The values above are taken from ChEMBL document CHEMBL1201862, “PubChem BioAssay data set” (2004).
